What was measured:
[1] = molecular target: Dual specificity tyrosine-phosphorylation-regulated kinase 1B (Homo sapiens) (UniProt Q9Y463); assay: Inhibition of human DYRK1B using RRRFRPASPLRGPPK as substrate at 1 uM in presence of 32P-ATP by Hotspot assay relative to control; values are per cent of control
[2] = molecular target: Serine/threonine-protein kinase Nek6 (Homo sapiens) (UniProt Q9HC98); assay: Inhibition of human NEK6 using casein as substrate at 1 uM in presence of 32P-ATP by Hotspot assay relative to control; values are per cent of control
Serine/threonine-protein kinase Nek6 (Homo sapiens), sequence (Q9HC98 whole entry): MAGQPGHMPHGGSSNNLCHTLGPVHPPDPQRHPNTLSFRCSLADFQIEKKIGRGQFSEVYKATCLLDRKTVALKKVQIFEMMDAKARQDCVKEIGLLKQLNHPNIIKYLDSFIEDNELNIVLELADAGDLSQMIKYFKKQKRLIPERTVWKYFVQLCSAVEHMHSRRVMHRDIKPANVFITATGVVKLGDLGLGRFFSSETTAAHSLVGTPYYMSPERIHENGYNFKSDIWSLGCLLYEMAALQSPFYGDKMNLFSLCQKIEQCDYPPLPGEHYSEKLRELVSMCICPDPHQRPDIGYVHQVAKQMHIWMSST

[3] = molecular target: T1, Serine/threonine-protein kinase TBK1 (Homo sapiens) (UniProt Q9UHD2); assay: Inhibition of human TBK1 using myelin basic protein as substrate at 1 uM in presence of 32P-ATP by Hotspot assay relative to control; values are per cent of control
T1 sequence (whole entry): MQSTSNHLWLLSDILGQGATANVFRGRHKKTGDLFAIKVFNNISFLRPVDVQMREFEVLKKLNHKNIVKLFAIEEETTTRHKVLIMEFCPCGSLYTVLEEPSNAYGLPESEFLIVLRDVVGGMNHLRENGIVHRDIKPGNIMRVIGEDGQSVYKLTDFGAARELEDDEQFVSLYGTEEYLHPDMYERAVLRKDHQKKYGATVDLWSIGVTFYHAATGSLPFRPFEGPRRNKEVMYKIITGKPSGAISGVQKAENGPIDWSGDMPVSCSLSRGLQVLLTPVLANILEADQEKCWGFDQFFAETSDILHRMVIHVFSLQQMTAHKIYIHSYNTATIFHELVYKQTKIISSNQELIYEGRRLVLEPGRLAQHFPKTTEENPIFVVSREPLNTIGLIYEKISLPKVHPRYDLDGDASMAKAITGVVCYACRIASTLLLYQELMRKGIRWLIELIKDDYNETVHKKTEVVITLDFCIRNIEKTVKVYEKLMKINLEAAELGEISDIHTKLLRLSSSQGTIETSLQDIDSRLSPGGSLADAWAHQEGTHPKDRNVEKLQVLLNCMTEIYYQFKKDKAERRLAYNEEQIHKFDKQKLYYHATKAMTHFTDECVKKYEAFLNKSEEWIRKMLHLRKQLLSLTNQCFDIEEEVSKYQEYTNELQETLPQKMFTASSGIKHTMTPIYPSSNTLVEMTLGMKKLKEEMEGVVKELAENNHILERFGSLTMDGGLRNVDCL

[4] = molecular target: Protein kinase C beta type (Homo sapiens) (UniProt P05771); assay: Inhibition of human PKCb2 using ERMRPRKRQGSVRRRV as substrate at 1 uM in presence of 32P-ATP by Hotspot assay relative to control; values are per cent of control
[5] = molecular target: Fibroblast growth factor receptor 1 (Homo sapiens) (UniProt P11362); assay: Inhibition of human FGFR1 using poly[Glu:Tyr] (4:1) as substrate at 1 uM in presence of 32P-ATP by Hotspot assay relative to control; values are per cent of control
Fibroblast growth factor receptor 1 (Homo sapiens), sequence (P11362 22-822 limits assumed): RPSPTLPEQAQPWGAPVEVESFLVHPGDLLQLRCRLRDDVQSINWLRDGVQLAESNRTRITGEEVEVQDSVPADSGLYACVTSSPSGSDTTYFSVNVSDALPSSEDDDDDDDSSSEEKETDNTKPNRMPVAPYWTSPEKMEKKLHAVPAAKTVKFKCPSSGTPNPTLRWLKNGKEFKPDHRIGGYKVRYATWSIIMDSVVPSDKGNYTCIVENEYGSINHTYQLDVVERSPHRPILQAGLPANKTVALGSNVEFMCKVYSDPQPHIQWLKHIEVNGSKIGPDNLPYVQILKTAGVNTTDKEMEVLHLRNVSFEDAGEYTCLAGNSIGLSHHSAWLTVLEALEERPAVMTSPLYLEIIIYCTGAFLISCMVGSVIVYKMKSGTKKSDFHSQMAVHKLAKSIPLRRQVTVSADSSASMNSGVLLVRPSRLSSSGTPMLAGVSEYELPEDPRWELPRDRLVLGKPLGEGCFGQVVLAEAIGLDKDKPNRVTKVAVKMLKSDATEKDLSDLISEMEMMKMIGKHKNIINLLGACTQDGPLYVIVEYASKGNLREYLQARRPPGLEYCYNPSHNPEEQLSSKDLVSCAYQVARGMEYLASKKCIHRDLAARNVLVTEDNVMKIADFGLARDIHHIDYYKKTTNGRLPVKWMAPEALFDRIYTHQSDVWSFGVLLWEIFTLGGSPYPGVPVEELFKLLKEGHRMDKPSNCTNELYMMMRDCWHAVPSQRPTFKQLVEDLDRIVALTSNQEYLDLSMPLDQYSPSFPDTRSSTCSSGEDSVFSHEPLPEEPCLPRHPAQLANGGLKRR

[6] = molecular target: Vascular endothelial growth factor receptor 2 (Homo sapiens) (UniProt P35968); assay: Inhibition of human KDR/VEGFR2 using poly[Glu:Tyr] (4:1) as substrate at 1 uM in presence of 32P-ATP by Hotspot assay relative to control; values are per cent of control
Vascular endothelial growth factor receptor 2 (Homo sapiens), sequence (P35968 whole entry): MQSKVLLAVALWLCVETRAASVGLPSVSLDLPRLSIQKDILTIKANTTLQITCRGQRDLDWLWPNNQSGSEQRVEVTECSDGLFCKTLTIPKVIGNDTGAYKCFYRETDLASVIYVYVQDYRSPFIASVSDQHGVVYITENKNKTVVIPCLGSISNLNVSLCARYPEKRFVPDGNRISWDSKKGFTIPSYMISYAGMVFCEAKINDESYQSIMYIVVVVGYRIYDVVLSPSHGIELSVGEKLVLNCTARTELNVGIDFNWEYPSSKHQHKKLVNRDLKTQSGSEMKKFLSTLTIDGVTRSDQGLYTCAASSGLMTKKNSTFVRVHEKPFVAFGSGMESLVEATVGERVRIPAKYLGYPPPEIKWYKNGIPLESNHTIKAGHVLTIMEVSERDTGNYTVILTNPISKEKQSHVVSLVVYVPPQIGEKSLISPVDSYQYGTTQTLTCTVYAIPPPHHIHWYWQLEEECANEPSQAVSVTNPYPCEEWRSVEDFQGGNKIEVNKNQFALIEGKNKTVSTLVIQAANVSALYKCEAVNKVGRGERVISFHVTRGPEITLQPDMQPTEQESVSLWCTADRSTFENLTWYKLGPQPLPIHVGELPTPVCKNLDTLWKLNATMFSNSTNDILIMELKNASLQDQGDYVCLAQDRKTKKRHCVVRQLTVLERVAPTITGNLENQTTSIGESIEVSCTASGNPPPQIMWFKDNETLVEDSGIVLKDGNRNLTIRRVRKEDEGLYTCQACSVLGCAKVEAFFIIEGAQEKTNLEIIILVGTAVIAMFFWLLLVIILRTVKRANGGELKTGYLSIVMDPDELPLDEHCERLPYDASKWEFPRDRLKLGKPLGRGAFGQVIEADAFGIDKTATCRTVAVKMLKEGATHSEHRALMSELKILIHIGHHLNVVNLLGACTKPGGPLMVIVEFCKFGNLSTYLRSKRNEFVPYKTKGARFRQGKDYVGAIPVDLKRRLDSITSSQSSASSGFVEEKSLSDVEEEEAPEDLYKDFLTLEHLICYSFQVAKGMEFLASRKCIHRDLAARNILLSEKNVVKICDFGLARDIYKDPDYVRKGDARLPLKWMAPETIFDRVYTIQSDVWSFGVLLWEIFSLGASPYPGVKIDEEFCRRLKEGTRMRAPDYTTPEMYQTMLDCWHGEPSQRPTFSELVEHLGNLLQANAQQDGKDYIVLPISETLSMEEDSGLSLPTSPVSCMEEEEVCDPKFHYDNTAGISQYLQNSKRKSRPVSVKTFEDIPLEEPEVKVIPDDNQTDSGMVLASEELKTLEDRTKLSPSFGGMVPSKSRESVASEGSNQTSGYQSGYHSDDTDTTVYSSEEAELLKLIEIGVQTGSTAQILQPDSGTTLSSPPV

[7] = molecular target: Mitogen-activated protein kinase kinase kinase 20 (Homo sapiens) (UniProt Q9NYL2); assay: Inhibition of human ZAK/MLTK using myelin basic protein as substrate at 1 uM in presence of 32P-ATP by Hotspot assay relative to control; values are per cent of control
Mitogen-activated protein kinase kinase kinase 20 (Homo sapiens), sequence (Q9NYL2 2-800 limits assumed): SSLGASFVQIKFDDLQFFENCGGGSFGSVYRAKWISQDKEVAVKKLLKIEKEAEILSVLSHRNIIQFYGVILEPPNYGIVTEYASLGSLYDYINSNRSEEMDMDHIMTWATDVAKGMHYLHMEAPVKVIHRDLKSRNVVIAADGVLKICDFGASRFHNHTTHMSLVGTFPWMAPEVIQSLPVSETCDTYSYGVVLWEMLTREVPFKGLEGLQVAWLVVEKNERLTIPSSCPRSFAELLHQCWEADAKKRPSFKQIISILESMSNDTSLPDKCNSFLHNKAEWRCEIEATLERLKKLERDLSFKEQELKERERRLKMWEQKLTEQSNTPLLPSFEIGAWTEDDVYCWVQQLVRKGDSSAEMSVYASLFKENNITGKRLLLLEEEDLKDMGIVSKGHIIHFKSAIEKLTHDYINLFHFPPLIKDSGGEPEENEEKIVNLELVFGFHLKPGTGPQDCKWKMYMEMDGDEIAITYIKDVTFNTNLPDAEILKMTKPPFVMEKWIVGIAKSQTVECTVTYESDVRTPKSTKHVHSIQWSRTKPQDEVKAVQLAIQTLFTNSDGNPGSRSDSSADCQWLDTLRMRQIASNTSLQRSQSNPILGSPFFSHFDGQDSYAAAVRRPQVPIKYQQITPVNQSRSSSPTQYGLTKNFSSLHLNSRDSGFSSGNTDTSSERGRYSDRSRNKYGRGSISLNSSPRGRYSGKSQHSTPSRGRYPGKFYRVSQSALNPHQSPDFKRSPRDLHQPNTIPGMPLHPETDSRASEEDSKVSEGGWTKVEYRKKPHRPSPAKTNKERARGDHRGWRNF

[8] = molecular target: Cyclin-dependent kinase 1/cyclin B1 (Homo sapiens) (UniProt P06493+P14635); assay: Inhibition of human CDK1/cyclin B using RB Protein as substrate at 1 uM in presence of 32P-ATP by Hotspot assay relative to control; values are per cent of control
Cyclin-dependent kinase 1/cyclin B1 (Homo sapiens), sequence (P06493 whole entry, looked up): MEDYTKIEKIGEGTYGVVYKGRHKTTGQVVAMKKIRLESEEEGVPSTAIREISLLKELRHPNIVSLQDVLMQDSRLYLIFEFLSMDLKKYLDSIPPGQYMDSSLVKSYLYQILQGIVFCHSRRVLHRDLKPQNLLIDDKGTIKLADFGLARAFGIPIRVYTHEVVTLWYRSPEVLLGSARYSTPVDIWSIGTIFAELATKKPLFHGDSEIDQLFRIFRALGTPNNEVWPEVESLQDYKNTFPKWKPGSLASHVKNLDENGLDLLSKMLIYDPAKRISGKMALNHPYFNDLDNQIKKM
Cyclin-dependent kinase 1/cyclin B1 (Homo sapiens), sequence (P14635 whole entry, looked up): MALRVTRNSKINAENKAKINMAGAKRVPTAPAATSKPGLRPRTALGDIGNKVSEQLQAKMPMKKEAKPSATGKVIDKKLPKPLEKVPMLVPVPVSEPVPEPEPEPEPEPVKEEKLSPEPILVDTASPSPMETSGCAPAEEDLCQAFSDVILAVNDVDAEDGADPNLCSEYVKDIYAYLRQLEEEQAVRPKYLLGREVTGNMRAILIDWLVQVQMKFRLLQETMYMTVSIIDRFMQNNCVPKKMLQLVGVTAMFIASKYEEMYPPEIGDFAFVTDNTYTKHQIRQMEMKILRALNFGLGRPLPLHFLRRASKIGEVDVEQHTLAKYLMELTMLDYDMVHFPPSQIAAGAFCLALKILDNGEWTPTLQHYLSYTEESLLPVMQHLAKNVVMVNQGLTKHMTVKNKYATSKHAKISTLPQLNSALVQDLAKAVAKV

[9] = molecular target: T2, Cytoplasmic tyrosine-protein kinase BMX (Homo sapiens) (UniProt P51813); assay: Inhibition of human BMX/ETK using poly[Glu:Tyr] (4:1) as substrate at 1 uM in presence of 32P-ATP by Hotspot assay relative to control; values are per cent of control
T2 sequence (whole entry): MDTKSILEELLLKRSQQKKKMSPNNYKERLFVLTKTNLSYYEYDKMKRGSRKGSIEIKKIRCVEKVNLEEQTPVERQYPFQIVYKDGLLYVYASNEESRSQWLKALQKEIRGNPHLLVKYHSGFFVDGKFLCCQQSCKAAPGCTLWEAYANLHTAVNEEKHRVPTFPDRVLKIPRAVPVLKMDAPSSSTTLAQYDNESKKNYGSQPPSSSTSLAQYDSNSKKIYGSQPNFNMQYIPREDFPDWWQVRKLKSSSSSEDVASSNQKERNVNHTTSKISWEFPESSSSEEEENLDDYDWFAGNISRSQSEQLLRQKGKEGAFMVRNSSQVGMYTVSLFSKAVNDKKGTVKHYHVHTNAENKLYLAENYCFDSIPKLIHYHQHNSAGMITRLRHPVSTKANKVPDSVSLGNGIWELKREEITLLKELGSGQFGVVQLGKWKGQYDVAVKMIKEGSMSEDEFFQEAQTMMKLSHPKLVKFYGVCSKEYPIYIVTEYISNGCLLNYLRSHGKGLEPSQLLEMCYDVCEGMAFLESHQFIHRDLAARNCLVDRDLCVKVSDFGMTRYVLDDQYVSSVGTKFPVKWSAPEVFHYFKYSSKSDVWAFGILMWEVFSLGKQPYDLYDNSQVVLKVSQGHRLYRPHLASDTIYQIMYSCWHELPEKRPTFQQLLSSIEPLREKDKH

Dual specificity tyrosine-phosphorylation-regulated kinase 1B (Homo sapiens), sequence (Q9Y463 whole entry, looked up): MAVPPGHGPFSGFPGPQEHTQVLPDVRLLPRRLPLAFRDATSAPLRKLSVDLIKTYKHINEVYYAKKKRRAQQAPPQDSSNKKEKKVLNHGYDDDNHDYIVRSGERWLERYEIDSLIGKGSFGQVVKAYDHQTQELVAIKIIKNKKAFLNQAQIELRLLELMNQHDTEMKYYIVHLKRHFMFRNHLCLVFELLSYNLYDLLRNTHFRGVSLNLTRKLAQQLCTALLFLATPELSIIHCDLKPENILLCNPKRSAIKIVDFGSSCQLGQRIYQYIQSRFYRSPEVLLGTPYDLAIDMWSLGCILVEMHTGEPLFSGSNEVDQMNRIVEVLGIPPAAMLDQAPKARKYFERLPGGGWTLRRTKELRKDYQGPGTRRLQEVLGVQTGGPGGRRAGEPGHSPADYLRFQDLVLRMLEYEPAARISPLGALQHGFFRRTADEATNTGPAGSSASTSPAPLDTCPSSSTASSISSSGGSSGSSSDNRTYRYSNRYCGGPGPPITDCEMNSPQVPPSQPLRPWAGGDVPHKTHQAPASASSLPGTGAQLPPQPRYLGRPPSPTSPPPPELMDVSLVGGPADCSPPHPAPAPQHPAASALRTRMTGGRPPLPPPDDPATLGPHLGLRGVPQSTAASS

CNC(=O)c1ccc2c(c1)ncn2-c1ccc(CC(=O)OC(C)(C)C)cc1
residual activity [1]: 98.4% | residual activity [2]: 104% | residual activity [3]: 84.2% | residual activity [4]: 94.7% | residual activity [5]: 56.4% | residual activity [6]: 78.7% | residual activity [7]: 41.7% | residual activity [8]: 98.9% | residual activity [9]: 83.5%

Cc1cc(-c2cnc(N)c3c(-c4ccc5scnc5c4)csc23)n(C)n1
residual activity [1]: 99.5% | residual activity [2]: 96% | residual activity [3]: 105% | residual activity [4]: 76.8% | residual activity [5]: 59.1% | residual activity [6]: 59.8% | residual activity [7]: 21.2% | residual activity [8]: 95% | residual activity [9]: 91.1%

CC(C)S(=O)(=O)c1ccc2nccc(Nc3ccc4scnc4c3)c2c1
residual activity [1]: 100% | residual activity [2]: 104% | residual activity [3]: 96.1% | residual activity [4]: 94.8% | residual activity [5]: 63.3% | residual activity [6]: 17.4% | residual activity [7]: 94.5% | residual activity [8]: 101% | residual activity [9]: 69.9%

Source: ChEMBL document CHEMBL5649166, “RIP3 induces apoptosis independent of pronecrotic kinase activity” (Mol Cell, 2014)
